Experimental data taken from US20160168155A1, “POLYMORPH OF SYK INHIBITORS” (GILEAD CONNECTICUT, INC., priority 2013, published 2016).
Each block holds one compound with its values, some of them ahead of it.

Key:
[1] = Intrinsic dissolution rate, rotating disk apparatus; format: physicochemical
Method: Intrinsic dissolution rate experiments were conducted using a rotating disk apparatus. Disks of drug substance were prepared by directly compressing 100 mg of powder of polymorph Form 3 in a die at a pressure of 2500 psi for 2 minutes using a hydraulic press (Carver Press, Fred Carver, NJ, USA). The exposed surface area for the resulting disk was 0.5 cm^2. A regular USP dissolution apparatus maintained at 37±0.5° C. was used for the dissolution study. Each dissolution vessel contained 500 mL of aqueous dissolution medium of 0.05 N HCl or pH 6.8 20 mM phosphate buffer with 1% cetyltrimetrylammonium bromide (CTAB). The disk holder (die) was half-immersed into the dissolution medium and rotated at 100 rpm. Samples were withdrawn at specified time intervals and analyzed by HPLC.
The dissolution rate (J) of solid per unit surface area may be described by a diffusion model:
Where D is the diffusion coefficient of the solute, h is the diffusion layer thickness during dissolution at the surface of solid, Cs is the saturation solubility of the solid in the dissolution medium, and Cb is its concentration in the bulk medium. Under sink condition (Cs>>Cb) Equation 2 is reduced to: […]
where dissolution rate is directly proportional to the saturated solubility.

[2] = Solubility in water
[3] = PK study in pentagastrin- or famotidine-pretreated dogs, oral tablets; conditions: famotidine-pretreated dogs, tablet
Method: Pentagastrin pretreatment (6 μg/kg intramuscular injection 30 minutes prior to test formulation dosing) in fasted dogs was used to simulate fasting gastric pH in humans. Famotidine pretreatment (20 mg orally 1 hour prior to test formulation dosing) in fasted dogs was used to simulate human gastric pH when acid suppressant was co-dosed with test formulation. The tablets of the mono-MSA salt or bis-MSA salt of a compound of Formula I (conventional tablet and spray dried formulation) were orally administered followed by a 30 mL water flush.

[4] = Moisture sorption isotherms (Hiden IGASorp / SMS DVS Intrinsic), Example 6B; format: physicochemical; conditions: for water uptake up to 90% RH / hygroscopicity: 25° C.; for hygroscopicity: sorption isotherm, 0-90% RH
Method: Sorption isotherms were obtained using a Hiden IGASorp moisture sorption analyser, controlled by CFRSorp software. The sample temperature was maintained at 25° C. by a Huber re-circulating water bath. The humidity was controlled by mixing streams of dry and wet nitrogen, with a total flow rate of 250 ml/min. The relative humidity (RH) was measured by a calibrated Vaisala RH probe (dynamic range of 0-95% RH), located near the sample. The weight change, (mass relaxation) of the sample as a function of % RH was constantly monitored by the microbalance (accuracy ±0.001 mg).
10-20 mg of sample was placed in a tared mesh stainless steel basket under ambient conditions. The sample was loaded and unloaded at 40% RH and 25° C. (typical room conditions).
A moisture sorption isotherm was performed as outlined in Table 1 below (2 scans giving 1 complete cycle). The standard isotherm was performed at 25° C. at 10% RH intervals over a 0-90% RH range.
The software uses a least squares minimization procedure together with a model of the mass relaxation, to predict an asymptotic value. The measured mass relaxation value must be within 5% of that predicted by the software, before the next % RH value is selected. The minimum equilibration time was set to 1 hour and the maximum to 4 hours. Data analysis was carried out using IGASorp Systems Software v 6.50.55. The sample was recovered after completion of the isotherm and re-analyzed by XRPD.
In other cases, sorption isotherms were also obtained using a SMS DVS Intrinsic moisture sorption analyser, controlled by DVS Intrinsic Control software v1.0.1.2 (or v 1.0.1.3). The sample temperature was maintained at 25° C. by the instrument controls. The humidity was controlled by mixing streams of dry and wet nitrogen, with a total flow rate of 200 ml/min. The relative humidity was measured by a calibrated Rotronic probe (dynamic range of 1.0-100% RH), located near the sample. The weight change, (mass relaxation) of the sample as a function of % RH was constantly monitored by the microbalance (accuracy ±0.005 mg).
5-20 mg of sample was placed in a tared mesh stainless steel basket under ambient conditions. The sample was loaded and unloaded at 40% RH and 25° C. (typical room conditions). A moisture sorption isotherm was performed as outlined in Table 2 below (2 scans giving 1 complete cycle). The standard isotherm was performed at 25° C. at 10% RH intervals over a 0-90% RH range. Data analysis was carried out using Microsoft Excel using DVS Analysis Suite v6.2 (or 6.1 or 6.0). The sample was recovered after completion of the isotherm and re-analyzed by XRPD.

[5] = Hygroscopicity by dynamic vapor sorption (Q5000SA), Example 6A; format: physicochemical; conditions: for hygroscopicity: 0 to 90% RH
Method: Hygroscopicity of polymorph Form 3 and polymorph Form 7 at 25° C. was determined by dynamic vapor sorption (DVS) using an automated vapor sorption balance (Q5000SA; TA instruments, New Castle, Del.). Hygroscopicity was studied as a function of relative humidity (RH) over the range of 0 to 90%. Approximately 10 mg of solid sample was placed directly onto the 13 mm quartz DVS sample cup and equilibrated at 0% relative humidity (RH) until a constant weight was achieved. After equilibration, the RH was increased in increments of 10% to reach 90%, and the water sorption was monitored. For desorption, the relative humidity was deceased in a similar manner to accomplish a full sorption/desorption cycle.
For all experiments, the instrument was operated in dm/dt mode (mass variation over time) to determine when equilibrium was reached. A fixed dm/dt value of 0.0010% min^−1 was selected for all RH segments. A maximum stage of 360 minutes and a minimum stage of 60 minutes were selected for these experiments.

[6] = DVS, 25° C., listed as Polymorph Form 3
[7] = DVS, 25° C., listed as Polymorph Form 7

Intrinsic dissolution rate in pH 1.3 0.05N HCl with 0.9% NaCl ([1]; pH 1.3, rotating disk, 37° C., 100 rpm): 0.00046 mg/min/cm^2
Intrinsic dissolution rate in pH 6.8 20 mM phosphate with 1% CTAB ([1]; pH 6.8, rotating disk, 37° C., 100 rpm, listed as free base of Formula I): no free base was detectable
Solubility in water [2]: <0.00005 mg/mL
Structure (SMILES): c1cn2cc(-c3ccc4cn[nH]c4c3)nc(Nc3ccc(N4CCOCC4)cc3)c2n1 [Free Base, Compound of Formula I]

increase of AUC0-24 compared to the mono-MSA salt formulation [3]: more than 10 fold
water uptake up to 90% RH ([4]; listed as Form 3): ~20 wt. %
solid form after DVS analysis (XRPD) ([4]; sample after DVS analysis): converted to Form 7
hygroscopicity [4]: not hygroscopic
IDR higher than mono MSA ([1]; pH 6.8): 400 fold
Intrinsic dissolution rate in pH 6.8 20 mM phosphate with 1% CTAB ([1]; pH 6.8, rotating disk, 37° C., 100 rpm): 1.2 mg/min/cm^2
hygroscopicity ([5]; DVS, 25° C.): not observed to be hygroscopic
water adsorption / weight gain at 90% RH [5, 6]: ~28%
solid form after DVS experiment (XRPD) ([5]; sample collected at end of DVS): converted to Form 7
Solubility in water [2]: >100 mg/mL
final pH ([2]; final pH of the water solubility sample): (final pH < 1.5)
Structure (SMILES): c1cn2cc(-c3ccc4cn[nH]c4c3)nc(Nc3ccc(N4CCOCC4)cc3)c2n1 [polymorph Form 3]
hygroscopicity ([4]; listed as Polymorph Form 3): not observed to be hygroscopic at 70% RH and below
hygroscopicity [5, 6]: not observed to be hygroscopic at 70% RH and below

water uptake up to 90% RH ([4]; listed as Polymorph Form 7): ~21 wt. %
solid form below the stable RH interval ([4]; below 30% RH): becomes amorphous
RH interval in which the form is stable ([4]; room temperature): 30-60 % RH
hygroscopicity ([4]; listed as Polymorph Form 7): highly hygroscopic
hygroscopicity [5, 7]: highly hygroscopic
weight gain at 40% RH ([5]; DVS, 25° C., 40% RH): ~10%
water adsorption / weight gain at 90% RH [5, 7]: ~22%
Structure (SMILES): c1cn2cc(-c3ccc4cn[nH]c4c3)nc(Nc3ccc(N4CCOCC4)cc3)c2n1 [polymorph Form 7]
